In general, EC50 refers to the concentration giving half of the maximal effect.

In this experiment the target is T1, AR (Homo sapiens, UniProt P10275).
T1 sequence (P10275 1-920 Q868H): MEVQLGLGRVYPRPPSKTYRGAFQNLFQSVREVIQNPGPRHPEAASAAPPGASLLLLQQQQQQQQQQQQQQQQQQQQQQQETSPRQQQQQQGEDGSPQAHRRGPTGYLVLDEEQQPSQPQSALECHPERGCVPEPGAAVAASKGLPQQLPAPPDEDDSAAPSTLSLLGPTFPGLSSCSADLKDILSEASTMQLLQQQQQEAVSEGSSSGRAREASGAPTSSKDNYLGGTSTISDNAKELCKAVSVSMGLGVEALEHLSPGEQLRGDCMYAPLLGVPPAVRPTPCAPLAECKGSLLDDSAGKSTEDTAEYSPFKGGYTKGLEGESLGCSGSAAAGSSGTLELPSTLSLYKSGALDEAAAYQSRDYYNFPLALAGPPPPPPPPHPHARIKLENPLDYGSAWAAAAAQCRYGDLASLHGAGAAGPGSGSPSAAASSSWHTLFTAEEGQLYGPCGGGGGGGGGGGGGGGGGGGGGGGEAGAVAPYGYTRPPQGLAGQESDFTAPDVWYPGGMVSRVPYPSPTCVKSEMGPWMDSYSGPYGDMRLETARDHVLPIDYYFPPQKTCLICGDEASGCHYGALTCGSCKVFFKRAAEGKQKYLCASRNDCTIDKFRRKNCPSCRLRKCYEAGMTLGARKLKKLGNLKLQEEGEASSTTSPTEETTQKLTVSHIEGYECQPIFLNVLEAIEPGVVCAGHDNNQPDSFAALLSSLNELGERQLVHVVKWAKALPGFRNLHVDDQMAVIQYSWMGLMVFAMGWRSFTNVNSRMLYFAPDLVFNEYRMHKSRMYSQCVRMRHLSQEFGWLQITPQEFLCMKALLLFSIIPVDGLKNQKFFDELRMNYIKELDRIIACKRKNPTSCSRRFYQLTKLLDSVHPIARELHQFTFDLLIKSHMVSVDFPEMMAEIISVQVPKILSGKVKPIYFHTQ
As to the kind of experiment: AR agonism assay in MDA-MB-453 ARE-luc reporter cells in the presence of pomalidomide. The conditions noted are these: MDA-MB-453 AR luciferase reporter, with pomalidomide. Format: cell-based. How it is done: The AR Responsive Luciferase Reporter MDA-MB-453 Stable Cell Line (MDA-MB-453 ARE-luc) was utilized for the AR agonism assay. These cells constitutively express the firefly luciferase reporter gene under the control of the androgen receptor response element. MDA-MB-453 ARE-luc cells were cultured in RPMI media (Thermo Fisher Scientific) supplemented with 5% charcoal-Dextran treated fetal bovine serum and were maintained at 37° C. in a 5% CO2 incubator. On day 0, the cells were seeded in 96-well plates at a density of 5×10^6 cells per plate. To prevent serum androgen interference during the AR agonism assay, the cells were cultured in phenol-free RPMI media without FBS. On day 1, the cells were treated with the compounds to establish concentration-response curves (CRCs). The compounds were administered at a top concentration of 300 nM with half-log dilutions. The synthetic AR agonist R1881 served as a positive control, with a top concentration of 30 nM and half-log dilutions. E3 ligase inhibitor pomalidomide was included in each well alongside the compounds at a concentration tenfold higher than that of the treated compounds. On day 2, the culture medium was removed, and luminescence data were obtained using the Bright Glo Assay (Promega, Catalog No. E2620) with 50 μL of Bright Glo buffer per well. Luminescence signals were recorded using a plate reader, and the agonism effect was calculated as a percentage using the formula: Agonism effect (%)=(Luminescence signal of compound/Maximum signal of R1881 at 30 nM)*100.
In general terms: A reporter such as luciferase makes a cellular process visible.

Consider `CC(C)N(CC1CCN(c2ncc(C(=O)N[C@H]3C(C)(C)[C@H](Oc4ccc(C#N)c(Cl)c4)C3(C)C)cn2)CC1)[C@H]1C[C@H](Oc2ccc3c(c2)C(=O)N(C2CCC(=O)NC2=O)C3=O)C1` (some centres unmarked) [Compound A, N-((1r,3r)-3-(3-chloro-4-cyanophenoxy)-2,2,4,4-tetramethylcyclobutyl)-2-(4-((((1r,3r)-3-((2-(2,6-dioxopiperidin-3-yl)-1,3-dioxoisoindolin-5-yl)oxy)cyclobutyl)(isopropyl)amino)methyl)piperidin-1-yl)pyrimidine-5-carboxamide], for which the “agonism activity at Emax relative to R1881” value is recorded as less than 40%. The EC50 (read-out: EC50, AR agonist activity) turned out to be 69 nM.

Source of the values: patent US12496301B2, “Use of androgen receptor degrader for the treatment of spinal and bulbar muscular atrophy” (Arvinas Operations, Inc., priority 2023, dated 2025).
